# Test results as given in patent publication US8557849B2 (priority 2008, dated 2013).
# Assay: Measurement of logP values by HPLC on reversed phase columns (EEC directive 79/831 Annex V.A8)
# Type: physicochemical
# Conditions: method [a]: pH 2.3 with 0.1% phosphoric acid and acetonitrile as eluent
# Procedure: Measurement of logP values was performed according EEC directive 79/831 Annex V.A8 by HPLC (High Performance Liquid Chromatography) on reversed phase columns with the following methods: • ^[a] Measurement was done at pH 2.3 with 0.1% phosphoric acid and acetonitrile as eluent. • ^[b] measurement of LC-MS was done at pH 2.7 with 0.1% formic acid in water and with acetonitrile (contains 0.1% formic acid) as eluent with a linear gradient from 10% acetonitrile to 95% acetonitrile. • ^[c] Measurement with LC-MS was done at pH 7.8 with 0.001 molar ammonium hydrogen carbonate solution in water as eluent with a linear gradient from 10% acetonitrile to 95% acetonitrile.
row,Structure (SMILES),log p
1,CC(ON=C(c1ccccc1)c1nnnn1C)c1csc(C#CCCCc2ccccc2)n1 (stereo not shown) [Example 3],5.08^[a]
2,CC(ON=C(c1ccccc1)c1nnnn1C)c1csc(C#CCC2CCCC2)n1 (stereo not shown) [Example 4],5.23^[a]
3,CC(ON=C(c1ccccc1)c1nnnn1C)c1csc(C#CCC2CCCCC2)n1 (stereo not shown) [Example 5],5.65^[a]
4,CCCCC#Cc1nc(C(C)ON=C(c2ccccc2)c2nnnn2C)cs1 (stereo not shown) [Example 6],4.73^[a]
5,Cn1nnnc1C(=NOCCc1csc(Br)n1)c1ccccc1 [Example 7],3.25^[a]
6,Cn1nnnc1C(=NOCCc1csc(C#CC2CC2)n1)c1ccccc1 [Example 8],3.69^[a]
7,CCCCC#Cc1nc(CCON=C(c2ccccc2)c2nnnn2C)cs1 [Example 9],4.46^[a]

# Same assay, conditions: method [b]: LC-MS at pH 2.7 with 0.1% formic acid in water and acetonitrile, linear gradient 10% to 95% acetonitrile
row,Structure (SMILES),log p
1,Cn1nnnc1C(=NOC(=O)c1ccccn1)c1ccccc1 [Example 10],2.13^[b]
2,CC(ON=C(c1ccccc1)c1nnnn1C)c1ccccn1 (stereo not shown) [Example 11],2.19^[b]
3,CC(ON=C(c1ccccc1)c1nnnn1C)c1cccc(N)n1 (stereo not shown) [Example 12],1.34^[b]
4,CC(C)CC(=O)Nc1cccc(C(C)O/N=C(/c2ccccc2)c2nnnn2C)n1 (stereo not shown) [Example 13],3.53^[b]
5,CCCCCC(=O)Nc1cccc(C(C)O/N=C(\c2ccccc2)c2nnnn2C)n1 (stereo not shown) [Example 14],3.83^[b]
6,CCCCCOC(=O)Nc1cccc(C(C)O/N=C(\c2ccccc2)c2nnnn2C)n1 (stereo not shown) [Example 15],4.41^[b]
7,CCCCCC(=O)Nc1cccc(C(C)O/N=C(/c2ccccc2)c2nnnn2C)n1 (stereo not shown) [Example 17],3.96^[b]
8,CCCCCOC(=O)Nc1cccc(C(C)O/N=C(/c2ccccc2)c2nnnn2C)n1 (stereo not shown) [Example 18],4.54^[b]

# Same assay, conditions: reversed phase HPLC column, pH 2.7; HCOOH; given in preparation examples; read-out: logP(HCOOH)
row,Structure (SMILES),chromatographic logP
1,"CC(O)c1csc(N)n1 (stereo not shown) [1-(2-amino-1,3-thiazol-4-yl)ethanol]",-0.16
2,"CC(O)c1csc(Br)n1 (stereo not shown) [1-(2-bromo-1,3-thiazol-4-yl)ethanol]",1.1
3,"CC(Br)c1csc(Br)n1 (stereo not shown) [2-bromo-4-(1-bromoethyl)-1,3-thiazole]",2.61
4,CC(ON=C(c1ccccc1)c1nnnn1C)c1csc(Br)n1 (stereo not shown) [Example 1],3.44
5,"CC(ON=C(c1ccccc1)c1nnnn1C)c1csc(C#CC2CC2)n1 (stereo not shown) [Example 2, N-{1-[2-(cyclopropylethynyl)-1,3-thiazol-4-yl]ethoxy}-1-(1-methyl-1H-tetrazol-5-yl)-1-phenylmethanimine]",3.89
6,"CC(ON=C(c1ccccc1)c1nnnn1C)c1cccc(N)n1 (stereo not shown) [Example 16, 6-[1-({[(1-methyl-1H-tetrazol-5-yl)(phenyl)methylene]amino}oxy)ethyl]pyridin-2-amine]",1.21
7,"CC(ON=C(c1ccccc1)c1nnnn1C)c1cccc(NC(=O)C(C)(C)C)n1 (stereo not shown) [Example 19, 2,2-dimethyl-N-{6-[1-({[(1-methyl-1H-tetrazol-5-yl)(phenyl)methylene]amino}oxy)ethyl]pyridin-2-yl}propanamide]",3.64
8,"CC(ON=C(c1ccccc1)c1nnnn1C)c1cccc(NC(=O)OC(C)(C)C)n1 (stereo not shown) [Example 20, tert-butyl {6-[1-({[(1-methyl-1H-tetrazol-5-yl)(phenyl)methylene]amino}oxy)ethyl]pyridin-2-yl}carbamate]",4.09
9,"CC(C)(C)C(=O)Nc1cccc(Br)n1 [N-(6-bromopyridin-2-yl)-2,2-dimethylpropanamide]",2.84
10,"CC(Br)c1cccc(NC(=O)C(C)(C)C)n1 (stereo not shown) [N-[6-(1-bromoethyl)pyridin-2-yl]-2,2-dimethylpropanamide]",3.05
11,"CC(O)c1cccc(NC(=O)C(C)(C)C)n1 (stereo not shown) [N-[6-(1-hydroxyethyl)pyridin-2-yl]-2,2-dimethylpropanamide]",1.08

# Same assay, conditions: reversed phase HPLC column; method [a]: pH 2.3 with 0.1% phosphoric acid and acetonitrile as eluent; read-out: log p
row,Structure (SMILES),chromatographic logP
1,CC(ON=C(c1ccccc1)c1nnnn1C)c1csc(Br)n1 (stereo not shown) [Example 1],3.44
2,"CC(ON=C(c1ccccc1)c1nnnn1C)c1csc(C#CC2CC2)n1 (stereo not shown) [Example 2, N-{1-[2-(cyclopropylethynyl)-1,3-thiazol-4-yl]ethoxy}-1-(1-methyl-1H-tetrazol-5-yl)-1-phenylmethanimine]",3.89
